Laboratory results reported in the NIST ThermoML archive (doi:10.1016/j.jct.2015.02.019).

Experiments:
[1] = 298.15 K; 100 kPa; Liquid; Vibrating tube method
[2] = refractive index (Na D-line) (dimensionless); details: 298.15 K; 101.33 kPa; Liquid; Standard Abbe refractometry
[3] = xn = mol fraction of the nth substance listed; details: 298.15 K, 100 kPa, Liquid, Vibrating tube method
[4] = excess molar enthalpy (molar enthalpy of mixing); xn = mol fraction of the nth substance listed; details: 298.15 K, 100 kPa, Liquid, Calvet calorimetry

CO [methanol]
Details	mass density [kg/m3]	refractive index
[1]	786.4	–
[2]	–	1.3261

CO [methanol] + CCCCC(=O)OC
Details	mass density [kg/m3]
[3], x2 = 0	786.4

CO [methanol] + COC=O
Details	mass density [kg/m3]
[3], x2 = 0	786.4

COC=O [methyl methanoate]
Details	mass density [kg/m3]	refractive index
[1]	966.28	–
[2]	–	1.3411

COC=O [methyl methanoate] + CCCCC(=O)OC
Details	mass density [kg/m3]
[3], x2 = 0	966.28

COC=O [methyl methanoate] + CO
Details	excess molar enthalpy, [4] [kcal/mol]	mass density, [3] [kg/m3]
x1 = 0.02	0.0179	–
x1 = 0.0337	–	795.73
x1 = 0.0487	0.0428	–
x1 = 0.0833	0.0743	808.8
x1 = 0.1225	0.105	–
x1 = 0.1557	–	826.74
x1 = 0.167	0.138	–
x1 = 0.19	–	834.77
x1 = 0.2135	0.168	–
x1 = 0.2499	–	848.14
x1 = 0.2613	0.195	–
x1 = 0.3086	0.218	–
x1 = 0.3219	–	863.26
x1 = 0.3501	0.236	–
x1 = 0.3644	0.241	–
x1 = 0.3906	–	876.73
x1 = 0.3943	0.252	–
x1 = 0.4077	0.257	–
x1 = 0.4572	0.27	–
x1 = 0.4946	–	895.61
x1 = 0.5127	0.282	–
x1 = 0.5416	–	903.58
x1 = 0.5783	0.286	–
x1 = 0.646	0.282	–
x1 = 0.6467	–	920.31
x1 = 0.7178	0.264	–
x1 = 0.7271	–	932.1
x1 = 0.7815	–	939.62
x1 = 0.7842	0.235	–
x1 = 0.8517	0.193	–
x1 = 0.8533	–	949.01
x1 = 0.8968	–	954.39
x1 = 0.9098	0.14	–
x1 = 0.9357	–	959.02
x1 = 0.9505	0.081	–
x1 = 1	–	966.28

CCCCC(=O)OC [methyl pentanoate]
Details	mass density [kg/m3]	refractive index
[1]	884.78	–
[2]	–	1.3952

CCCCC(=O)OC [methyl pentanoate] + CO
Details	excess molar enthalpy [kcal/mol]	mass density [kg/m3]
[3], x1 = 0.0235	–	793.56
[3], x1 = 0.062	–	803.85
[3], x1 = 0.0741	–	806.78
[3], x1 = 0.1314	–	818.95
[3], x1 = 0.1512	–	822.61
[3], x1 = 0.2017	–	830.95
[3], x1 = 0.248	–	837.51
[3], x1 = 0.304	–	844.36
[3], x1 = 0.3501	–	849.28
[3], x1 = 0.4499	–	858.16
[3], x1 = 0.5121	–	862.75
[3], x1 = 0.6073	–	868.69
[3], x1 = 0.6865	–	872.86
[3], x1 = 0.7472	–	875.67
[3], x1 = 0.7884	–	877.42
[3], x1 = 0.7982	–	877.81
[3], x1 = 0.8786	–	880.85
[3], x1 = 0.963	–	883.66
[3], x1 = 1	–	884.78
[4], x1 = 0.0244	0.0198	–
[4], x1 = 0.0512	0.0404	–
[4], x1 = 0.0839	0.0662	–
[4], x1 = 0.1195	0.0915	–
[4], x1 = 0.1562	0.116	–
[4], x1 = 0.192	0.138	–
[4], x1 = 0.2279	0.159	–
[4], x1 = 0.264	0.176	–
[4], x1 = 0.2993	0.196	–
[4], x1 = 0.3336	0.209	–
[4], x1 = 0.367	0.22	–
[4], x1 = 0.3861	0.226	–
[4], x1 = 0.4156	0.237	–
[4], x1 = 0.4625	0.252	–
[4], x1 = 0.5081	0.261	–
[4], x1 = 0.5867	0.262	–
[4], x1 = 0.6887	0.24	–
[4], x1 = 0.7931	0.194	–
[4], x1 = 0.8868	0.127	–
[4], x1 = 0.957	0.0574	–

CCCCC(=O)OC [methyl pentanoate] + COC=O
Details	excess molar enthalpy [kcal/mol]	mass density [kg/m3]
[3], x1 = 0.0555	–	956.19
[3], x1 = 0.104	–	948.47
[3], x1 = 0.1464	–	942.39
[3], x1 = 0.2093	–	934.27
[3], x1 = 0.2537	–	929.22
[3], x1 = 0.3106	–	923.46
[3], x1 = 0.3493	–	919.84
[3], x1 = 0.4011	–	915.46
[3], x1 = 0.4572	–	911.17
[3], x1 = 0.5	–	908.17
[3], x1 = 0.5539	–	904.69
[3], x1 = 0.6081	–	901.55
[3], x1 = 0.6522	–	899.15
[3], x1 = 0.7258	–	895.5
[3], x1 = 0.7765	–	893.24
[3], x1 = 0.836	–	890.8
[3], x1 = 0.9031	–	888.23
[3], x1 = 1	–	884.78
[4], x1 = 0.0272	0.0141	–
[4], x1 = 0.0583	0.0268	–
[4], x1 = 0.0932	0.0409	–
[4], x1 = 0.1292	0.055	–
[4], x1 = 0.172	0.0696	–
[4], x1 = 0.2104	0.0813	–
[4], x1 = 0.2533	0.0906	–
[4], x1 = 0.2946	0.0958	–
[4], x1 = 0.3096	0.0987	–
[4], x1 = 0.3486	0.101	–
[4], x1 = 0.3982	0.103	–
[4], x1 = 0.4522	0.103	–
[4], x1 = 0.5232	0.0978	–
[4], x1 = 0.6056	0.0875	–
[4], x1 = 0.6943	0.0727	–
[4], x1 = 0.7968	0.0523	–
[4], x1 = 0.8656	0.0347	–
[4], x1 = 0.93	0.0201	–
